Laboratory results reported in ChEMBL document CHEMBL4507319 (2021).

Legend:
MDA-MB-453 = test: MDA-MB- 453 cell line Proliferation assay; format: functional, Homo sapiens; conditions: time 3 day
[1] = biological target: T1, Tyrosine-protein kinase receptor TYRO3 (Homo sapiens) (UniProt Q06418); test: Rse(h) Eurofins kinase panel; conditions: Compound concentration 1.0 uM
T1 sequence (whole entry): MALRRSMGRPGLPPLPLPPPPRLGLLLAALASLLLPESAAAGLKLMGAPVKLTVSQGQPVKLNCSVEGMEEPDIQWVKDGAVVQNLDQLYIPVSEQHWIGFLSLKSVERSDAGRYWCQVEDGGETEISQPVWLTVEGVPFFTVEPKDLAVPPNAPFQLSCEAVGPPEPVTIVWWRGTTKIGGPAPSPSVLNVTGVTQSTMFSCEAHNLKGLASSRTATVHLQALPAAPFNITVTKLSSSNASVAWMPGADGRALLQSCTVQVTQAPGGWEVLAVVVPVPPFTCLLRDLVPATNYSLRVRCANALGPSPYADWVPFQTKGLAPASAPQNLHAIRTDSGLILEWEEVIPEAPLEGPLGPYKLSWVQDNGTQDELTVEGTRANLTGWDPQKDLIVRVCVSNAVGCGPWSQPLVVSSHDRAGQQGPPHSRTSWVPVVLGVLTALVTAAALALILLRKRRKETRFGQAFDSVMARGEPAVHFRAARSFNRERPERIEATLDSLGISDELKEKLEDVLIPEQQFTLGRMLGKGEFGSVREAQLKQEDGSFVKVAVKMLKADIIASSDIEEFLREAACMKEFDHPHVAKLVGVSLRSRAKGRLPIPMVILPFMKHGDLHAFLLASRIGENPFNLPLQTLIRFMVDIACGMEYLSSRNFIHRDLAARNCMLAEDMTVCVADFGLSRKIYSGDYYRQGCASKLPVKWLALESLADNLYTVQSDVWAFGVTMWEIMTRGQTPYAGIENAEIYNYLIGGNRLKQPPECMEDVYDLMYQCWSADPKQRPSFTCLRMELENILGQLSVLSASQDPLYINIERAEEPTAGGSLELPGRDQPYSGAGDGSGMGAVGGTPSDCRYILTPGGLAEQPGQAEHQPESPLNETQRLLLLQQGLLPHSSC

[2] = biological target: T2, Ephrin type-B receptor 3 (Homo sapiens) (UniProt P54753); test: EphB3(h) Eurofins kinase panel; conditions: Compound concentration 1.0 uM
T2 sequence (whole entry): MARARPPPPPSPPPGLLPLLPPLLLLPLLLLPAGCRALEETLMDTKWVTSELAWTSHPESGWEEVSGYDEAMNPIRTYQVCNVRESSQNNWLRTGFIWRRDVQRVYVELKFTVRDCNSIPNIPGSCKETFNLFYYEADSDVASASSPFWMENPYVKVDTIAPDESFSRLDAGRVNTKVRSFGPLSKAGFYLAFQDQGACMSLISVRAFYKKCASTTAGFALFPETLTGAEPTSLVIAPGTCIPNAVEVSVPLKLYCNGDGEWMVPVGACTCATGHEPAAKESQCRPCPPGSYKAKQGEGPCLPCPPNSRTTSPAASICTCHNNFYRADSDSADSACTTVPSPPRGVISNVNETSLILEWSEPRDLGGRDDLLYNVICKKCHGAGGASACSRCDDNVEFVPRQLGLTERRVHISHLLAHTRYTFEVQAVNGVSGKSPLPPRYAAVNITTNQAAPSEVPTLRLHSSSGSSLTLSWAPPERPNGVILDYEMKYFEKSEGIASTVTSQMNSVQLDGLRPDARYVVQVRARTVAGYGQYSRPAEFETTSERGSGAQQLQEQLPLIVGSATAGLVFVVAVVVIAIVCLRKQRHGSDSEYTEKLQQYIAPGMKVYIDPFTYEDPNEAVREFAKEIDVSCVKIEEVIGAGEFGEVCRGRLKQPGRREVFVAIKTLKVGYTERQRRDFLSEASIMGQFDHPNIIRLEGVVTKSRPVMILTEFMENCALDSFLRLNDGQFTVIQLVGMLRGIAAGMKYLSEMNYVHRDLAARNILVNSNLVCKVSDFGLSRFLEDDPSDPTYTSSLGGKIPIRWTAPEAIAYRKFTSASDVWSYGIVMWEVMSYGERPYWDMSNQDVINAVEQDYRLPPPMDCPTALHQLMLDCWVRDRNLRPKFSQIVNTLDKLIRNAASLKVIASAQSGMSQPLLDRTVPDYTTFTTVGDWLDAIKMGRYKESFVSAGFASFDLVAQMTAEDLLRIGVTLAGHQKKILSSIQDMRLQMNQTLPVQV

[3] = biological target: Serine/threonine-protein kinase B-raf (Homo sapiens) (UniProt P15056); test: B-Raf(h) Eurofins kinase panel; conditions: Compound concentration 1.0 uM
[4] = biological target: Serine/threonine-protein kinase WNK3 (Homo sapiens) (UniProt Q9BYP7); test: WNK3(h) Eurofins kinase panel; conditions: Compound concentration 1.0 uM
Sequence of Serine/threonine-protein kinase WNK3 (Homo sapiens) (Q9BYP7 whole entry): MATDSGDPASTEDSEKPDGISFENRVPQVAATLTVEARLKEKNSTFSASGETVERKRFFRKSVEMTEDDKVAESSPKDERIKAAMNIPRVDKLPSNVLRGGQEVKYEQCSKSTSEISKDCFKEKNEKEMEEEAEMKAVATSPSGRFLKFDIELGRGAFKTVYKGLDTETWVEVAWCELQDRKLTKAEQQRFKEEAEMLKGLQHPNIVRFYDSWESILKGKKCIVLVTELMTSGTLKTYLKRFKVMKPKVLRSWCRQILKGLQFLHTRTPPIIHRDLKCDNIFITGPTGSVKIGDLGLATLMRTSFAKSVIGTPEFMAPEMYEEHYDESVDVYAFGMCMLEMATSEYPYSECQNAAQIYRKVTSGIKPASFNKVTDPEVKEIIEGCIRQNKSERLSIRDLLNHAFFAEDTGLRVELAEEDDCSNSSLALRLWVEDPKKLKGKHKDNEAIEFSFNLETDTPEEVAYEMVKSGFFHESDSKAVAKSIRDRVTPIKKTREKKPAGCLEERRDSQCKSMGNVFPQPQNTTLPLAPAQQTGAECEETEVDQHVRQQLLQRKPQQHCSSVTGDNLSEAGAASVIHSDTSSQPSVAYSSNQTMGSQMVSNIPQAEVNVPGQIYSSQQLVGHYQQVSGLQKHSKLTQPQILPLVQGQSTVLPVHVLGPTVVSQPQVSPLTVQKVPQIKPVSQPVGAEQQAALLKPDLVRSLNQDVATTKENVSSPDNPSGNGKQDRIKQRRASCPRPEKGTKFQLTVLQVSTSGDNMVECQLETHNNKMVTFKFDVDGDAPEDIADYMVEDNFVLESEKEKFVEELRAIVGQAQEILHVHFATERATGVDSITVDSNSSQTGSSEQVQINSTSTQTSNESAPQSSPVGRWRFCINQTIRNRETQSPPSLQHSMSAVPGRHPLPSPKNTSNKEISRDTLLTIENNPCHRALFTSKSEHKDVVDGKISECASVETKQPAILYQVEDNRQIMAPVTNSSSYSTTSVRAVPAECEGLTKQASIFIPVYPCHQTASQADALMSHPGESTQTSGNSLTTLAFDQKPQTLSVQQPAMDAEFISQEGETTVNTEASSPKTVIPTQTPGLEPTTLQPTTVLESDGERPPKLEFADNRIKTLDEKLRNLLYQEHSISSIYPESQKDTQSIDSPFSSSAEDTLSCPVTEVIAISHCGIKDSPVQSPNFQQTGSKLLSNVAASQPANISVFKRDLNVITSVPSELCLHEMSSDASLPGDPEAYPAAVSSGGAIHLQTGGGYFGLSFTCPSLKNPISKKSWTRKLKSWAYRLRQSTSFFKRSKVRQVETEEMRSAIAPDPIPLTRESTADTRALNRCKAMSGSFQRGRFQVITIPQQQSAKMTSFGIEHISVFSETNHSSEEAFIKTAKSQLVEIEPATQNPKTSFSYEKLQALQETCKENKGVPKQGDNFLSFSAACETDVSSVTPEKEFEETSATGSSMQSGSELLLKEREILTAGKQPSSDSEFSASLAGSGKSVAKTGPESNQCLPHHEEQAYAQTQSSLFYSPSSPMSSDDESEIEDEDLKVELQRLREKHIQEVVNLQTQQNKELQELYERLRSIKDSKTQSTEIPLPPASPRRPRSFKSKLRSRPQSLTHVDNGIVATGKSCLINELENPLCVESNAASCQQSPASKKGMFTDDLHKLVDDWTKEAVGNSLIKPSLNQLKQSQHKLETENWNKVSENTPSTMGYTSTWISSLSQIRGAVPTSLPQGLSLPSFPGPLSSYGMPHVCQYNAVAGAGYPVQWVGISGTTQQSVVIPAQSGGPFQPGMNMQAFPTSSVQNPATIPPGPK

[5] = biological target: Ribosomal protein S6 kinase alpha-2 (Homo sapiens, UniProt Q15349)
Sequence of Ribosomal protein S6 kinase alpha-2 (Q15349 whole entry): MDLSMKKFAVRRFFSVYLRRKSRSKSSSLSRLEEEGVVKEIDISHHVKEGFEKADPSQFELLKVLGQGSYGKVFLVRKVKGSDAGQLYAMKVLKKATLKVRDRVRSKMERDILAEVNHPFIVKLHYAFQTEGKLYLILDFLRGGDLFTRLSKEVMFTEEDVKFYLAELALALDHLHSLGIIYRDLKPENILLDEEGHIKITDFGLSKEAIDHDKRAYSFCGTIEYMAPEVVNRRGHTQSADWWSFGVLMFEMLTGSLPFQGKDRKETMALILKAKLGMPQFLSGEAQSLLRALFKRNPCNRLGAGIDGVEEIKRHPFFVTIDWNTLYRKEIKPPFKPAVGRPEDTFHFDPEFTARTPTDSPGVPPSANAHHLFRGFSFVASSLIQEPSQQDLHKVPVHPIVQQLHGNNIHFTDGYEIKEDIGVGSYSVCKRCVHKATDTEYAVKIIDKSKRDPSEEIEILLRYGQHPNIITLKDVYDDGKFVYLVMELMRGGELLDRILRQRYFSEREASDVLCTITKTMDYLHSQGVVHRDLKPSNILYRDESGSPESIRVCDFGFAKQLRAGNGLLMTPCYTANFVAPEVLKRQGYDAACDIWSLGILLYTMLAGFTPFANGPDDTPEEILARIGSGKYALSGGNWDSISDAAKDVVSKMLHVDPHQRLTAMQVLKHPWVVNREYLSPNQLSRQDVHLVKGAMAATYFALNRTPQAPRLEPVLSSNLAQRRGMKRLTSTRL

[6] = biological target: Tyrosine-protein kinase receptor UFO (Homo sapiens) (UniProt P30530); test: Axl(h) Eurofins kinase panel; conditions: Compound concentration 1.0 uM
[7] = biological target: Mitogen-activated protein kinase 1 (Homo sapiens) (UniProt P28482); test: MAPK2(h) Eurofins kinase panel; conditions: Compound concentration 1.0 uM
Sequence of Mitogen-activated protein kinase 1 (Homo sapiens) (P28482 whole entry): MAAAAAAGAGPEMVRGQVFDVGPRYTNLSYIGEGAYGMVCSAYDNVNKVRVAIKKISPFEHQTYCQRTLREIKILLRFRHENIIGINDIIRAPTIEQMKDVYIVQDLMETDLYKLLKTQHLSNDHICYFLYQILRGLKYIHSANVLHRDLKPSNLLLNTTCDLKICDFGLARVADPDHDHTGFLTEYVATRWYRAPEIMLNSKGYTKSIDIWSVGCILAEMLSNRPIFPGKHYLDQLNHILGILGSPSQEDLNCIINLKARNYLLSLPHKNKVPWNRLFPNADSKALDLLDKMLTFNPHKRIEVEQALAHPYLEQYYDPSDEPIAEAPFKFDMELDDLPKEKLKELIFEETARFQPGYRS

[8] = biological target: Angiopoietin-1 receptor (Homo sapiens) (UniProt Q02763); test: Tie2 (h) Eurofins kinase panel; conditions: Compound concentration 1.0 uM
Sequence of Angiopoietin-1 receptor (Homo sapiens) (Q02763 whole entry): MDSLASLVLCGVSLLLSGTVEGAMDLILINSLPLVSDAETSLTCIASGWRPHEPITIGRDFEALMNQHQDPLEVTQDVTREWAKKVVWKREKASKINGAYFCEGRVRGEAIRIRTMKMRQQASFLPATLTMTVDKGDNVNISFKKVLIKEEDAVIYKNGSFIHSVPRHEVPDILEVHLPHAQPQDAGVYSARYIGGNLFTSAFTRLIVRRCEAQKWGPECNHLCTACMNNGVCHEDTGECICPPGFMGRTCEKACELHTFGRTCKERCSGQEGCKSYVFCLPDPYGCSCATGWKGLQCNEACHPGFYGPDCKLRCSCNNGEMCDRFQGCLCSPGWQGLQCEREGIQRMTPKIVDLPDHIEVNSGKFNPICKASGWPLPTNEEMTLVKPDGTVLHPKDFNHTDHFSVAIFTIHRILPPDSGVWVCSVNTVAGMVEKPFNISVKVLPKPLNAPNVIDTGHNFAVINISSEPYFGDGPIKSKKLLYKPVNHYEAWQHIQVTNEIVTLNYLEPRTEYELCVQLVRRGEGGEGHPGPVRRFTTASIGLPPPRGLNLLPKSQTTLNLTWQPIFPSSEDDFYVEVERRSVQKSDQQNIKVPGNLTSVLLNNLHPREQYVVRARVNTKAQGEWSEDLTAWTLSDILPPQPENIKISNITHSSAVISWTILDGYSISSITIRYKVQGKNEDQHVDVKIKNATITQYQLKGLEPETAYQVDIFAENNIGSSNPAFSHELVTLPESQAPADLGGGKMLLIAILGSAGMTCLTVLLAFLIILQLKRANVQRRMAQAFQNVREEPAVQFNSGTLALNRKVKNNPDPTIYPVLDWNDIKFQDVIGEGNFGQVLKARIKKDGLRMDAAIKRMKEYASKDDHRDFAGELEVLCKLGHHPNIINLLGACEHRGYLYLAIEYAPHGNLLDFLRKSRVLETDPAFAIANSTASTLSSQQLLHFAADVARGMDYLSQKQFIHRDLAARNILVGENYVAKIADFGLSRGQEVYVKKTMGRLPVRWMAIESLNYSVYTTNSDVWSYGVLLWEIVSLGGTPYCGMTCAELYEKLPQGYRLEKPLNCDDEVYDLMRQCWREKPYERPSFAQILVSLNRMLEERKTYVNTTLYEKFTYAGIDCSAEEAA

[9] = biological target: T3, Mitogen-activated protein kinase kinase kinase 2 (Homo sapiens) (UniProt Q9Y2U5); test: MEKK2(h) Eurofins kinase panel; conditions: Compound concentration 1.0 uM
T3 sequence (whole entry): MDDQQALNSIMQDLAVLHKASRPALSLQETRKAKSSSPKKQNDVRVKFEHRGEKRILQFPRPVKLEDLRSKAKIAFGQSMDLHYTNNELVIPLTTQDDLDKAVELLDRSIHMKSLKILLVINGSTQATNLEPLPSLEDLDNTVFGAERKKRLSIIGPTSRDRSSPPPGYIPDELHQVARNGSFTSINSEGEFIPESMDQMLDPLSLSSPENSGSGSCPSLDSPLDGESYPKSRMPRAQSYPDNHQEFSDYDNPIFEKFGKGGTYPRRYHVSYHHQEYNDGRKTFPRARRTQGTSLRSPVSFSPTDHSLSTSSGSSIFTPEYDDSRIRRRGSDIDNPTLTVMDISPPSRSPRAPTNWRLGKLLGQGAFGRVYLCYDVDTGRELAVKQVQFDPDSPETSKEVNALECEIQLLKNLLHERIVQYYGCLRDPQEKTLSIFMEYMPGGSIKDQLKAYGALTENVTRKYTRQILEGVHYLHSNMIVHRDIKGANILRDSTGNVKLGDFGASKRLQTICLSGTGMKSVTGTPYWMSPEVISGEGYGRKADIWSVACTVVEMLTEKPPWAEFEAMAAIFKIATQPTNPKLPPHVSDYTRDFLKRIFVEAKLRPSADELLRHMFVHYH

[10] = biological target: Ribosomal protein S6 kinase alpha-3 (Homo sapiens, UniProt P51812); conditions: Compound concentration 1.0 uM
Sequence of Ribosomal protein S6 kinase alpha-3 (P51812 whole entry): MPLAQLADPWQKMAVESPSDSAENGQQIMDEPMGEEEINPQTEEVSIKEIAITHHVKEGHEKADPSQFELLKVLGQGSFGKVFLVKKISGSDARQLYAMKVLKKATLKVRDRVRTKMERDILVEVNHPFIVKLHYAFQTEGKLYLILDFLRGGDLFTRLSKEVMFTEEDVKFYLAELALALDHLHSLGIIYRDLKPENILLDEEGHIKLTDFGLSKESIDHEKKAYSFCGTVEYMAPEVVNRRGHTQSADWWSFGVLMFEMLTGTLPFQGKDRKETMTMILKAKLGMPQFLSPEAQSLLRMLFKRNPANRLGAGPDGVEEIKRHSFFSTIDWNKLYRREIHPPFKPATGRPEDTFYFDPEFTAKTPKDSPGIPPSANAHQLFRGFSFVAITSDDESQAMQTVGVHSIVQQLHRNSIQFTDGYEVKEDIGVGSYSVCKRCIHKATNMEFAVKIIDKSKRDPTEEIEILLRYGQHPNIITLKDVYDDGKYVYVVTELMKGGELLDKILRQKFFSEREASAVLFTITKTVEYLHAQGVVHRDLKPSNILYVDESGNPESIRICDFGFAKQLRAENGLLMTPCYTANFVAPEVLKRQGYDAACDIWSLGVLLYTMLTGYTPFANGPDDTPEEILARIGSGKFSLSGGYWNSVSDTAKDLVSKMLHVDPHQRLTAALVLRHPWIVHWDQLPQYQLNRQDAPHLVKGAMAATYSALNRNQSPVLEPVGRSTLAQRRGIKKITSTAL

SMILES: CCc1ccccc1C(=O)Nc1n[nH]c2c(C)c(F)c(C3C(C#N)=C(C)N(C)C(C)=C3C#N)cc12 [BAY-3827]
- Cell Proliferation IC50 (MDA-MB-453): 14600 nM
- % residual kinase activity [1]: 105%
- % residual kinase activity [2]: 109%
- % residual kinase activity [3]: 99%
- % residual kinase activity [4]: 103%
- IC50 [5]: 24 nM
- % residual kinase activity [6]: 100%
- % residual kinase activity [7]: 102%
- % residual kinase activity [8]: 81%
- % residual kinase activity [9]: 103%
- % residual kinase activity [10]: 0%
